# Measured values reported in patent US20250129067A1 (Progentos Therapeutics, Inc., priority 2021, published 2025).
# Legend:
# PDGFRα = PDGFRα (Homo sapiens (Human), UniProt P16234); assay: PDGFRα kinase enzyme assay (Promega PDGFRα Kinase Enzyme System, ADP-Glo); type: biochemical; details: 11-point dose response, 10,000 nM to 0.169 nM; 150 uM ATP; BLQ = below limit of quantitation; read-out: IC50 Values on PDGFRα Kinase Inhibition, IC50
# Method: The PDGFRα enzyme assays were conducted per the manufacturer's directions (Promega PDGFRα Kinase Enzyme System and ADP Glo Assay Cat #V8011). […] 20 ng of purified PDGFRα protein was added to the test article. […] ADP-Glo was added to halt the kinase reaction and deplete the remaining ATP. Kinase detection reagent, containing luciferase and luciferin, was used to convert the ADP signal into luminescence. Luminescence was measured using a Molecular Devices Spectramax ID5 and compared to a standard curve to determine kinase activity. IC50s were calculated using Prism 9, Graphpad software.
# [1] = system: Oligodendrocyte progenitor cells (OPCs); assay: In vitro OPC differentiation assay, GPR17 expression (immunocytochemistry); details: 3 μM (10× concentration, final 0.3 μM); 72 hours; fold change over vehicle
# PDGFRα, sequence (P16234 24-1089): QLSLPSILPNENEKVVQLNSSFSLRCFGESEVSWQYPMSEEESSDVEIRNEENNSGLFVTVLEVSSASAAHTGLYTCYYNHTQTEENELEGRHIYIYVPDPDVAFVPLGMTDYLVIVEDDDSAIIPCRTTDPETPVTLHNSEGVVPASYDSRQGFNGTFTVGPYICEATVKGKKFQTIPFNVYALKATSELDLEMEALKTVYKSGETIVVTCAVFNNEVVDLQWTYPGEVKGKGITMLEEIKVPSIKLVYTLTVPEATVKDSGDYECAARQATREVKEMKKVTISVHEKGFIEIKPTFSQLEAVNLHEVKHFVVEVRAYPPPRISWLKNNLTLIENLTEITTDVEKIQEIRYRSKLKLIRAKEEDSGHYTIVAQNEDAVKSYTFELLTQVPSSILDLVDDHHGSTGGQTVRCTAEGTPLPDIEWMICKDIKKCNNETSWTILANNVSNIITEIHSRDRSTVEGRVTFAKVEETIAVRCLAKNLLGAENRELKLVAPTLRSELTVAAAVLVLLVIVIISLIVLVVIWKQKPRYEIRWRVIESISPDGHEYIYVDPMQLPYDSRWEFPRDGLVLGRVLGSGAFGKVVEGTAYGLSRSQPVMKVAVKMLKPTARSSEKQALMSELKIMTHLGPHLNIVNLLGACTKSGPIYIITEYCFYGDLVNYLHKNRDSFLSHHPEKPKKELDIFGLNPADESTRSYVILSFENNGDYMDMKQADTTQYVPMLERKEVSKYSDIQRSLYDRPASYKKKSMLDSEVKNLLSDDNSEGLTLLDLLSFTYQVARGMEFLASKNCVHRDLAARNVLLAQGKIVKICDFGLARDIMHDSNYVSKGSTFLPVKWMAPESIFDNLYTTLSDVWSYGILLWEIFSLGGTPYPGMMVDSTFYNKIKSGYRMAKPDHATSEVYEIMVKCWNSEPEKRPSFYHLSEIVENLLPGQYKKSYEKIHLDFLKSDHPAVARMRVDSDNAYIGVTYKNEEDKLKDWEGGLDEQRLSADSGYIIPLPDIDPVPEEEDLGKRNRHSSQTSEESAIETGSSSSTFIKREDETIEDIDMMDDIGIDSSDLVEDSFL
SMILES,IC50 (PDGFRα),GPR17 Fold Induction (Over Vehicle; 3 μM) [1]
"COCCn1cc(-c2ccn3c(N(C)CCN(C)C(=O)OC(C)(C)C)cnc3n2)cn1 [Compound 109, tert-butyl (2-((7-(1-(2-methoxyethyl)-1H-pyrazol-4-yl)imidazo[1,2-a]pyrimidin-3-yl)(methyl)amino)ethyl)(methyl)carbamate]",> 10 µM,1.38
"Cn1cc(-c2ccn3c(N4CCC(C(=O)OC(C)(C)C)C4)cnc3n2)cn1 (stereo not shown) [Compound 110, tert-butyl 1-(7-(1-methyl-1H-pyrazol-4-yl)imidazo[1,2-a]pyrimidin-3-yl)pyrrolidine-3-carboxylate]",> 10 µM,0.85
"Cc1cn(-c2ccn3c(N4CCCN(C(=O)OC(C)(C)C)CC4)cnc3n2)cn1 [Compound 111, tert-butyl 4-(7-(4-methyl-1H-imidazol-1-yl)imidazo[1,2-a]pyrimidin-3-yl)-1,4-diazepane-1-carboxylate]",> 10 µM,0.60
CN(CCN(C)c1cnc2nc(-c3cccnc3)ccn12)C(=O)OC(C)(C)C [Compound 112],> 10 µM,0.91
"Cn1cc(-c2cc3ncc(N4CCN(c5ncc(Cc6ccccc6)cn5)CC4)n3cn2)cn1 [Compound 113, 3-(4-(5-benzylpyrimidin-2-yl)piperazin-1-yl)-7-(1-methyl-1H-pyrazol-4-yl)imidazo[1,2-c]pyrimidine]",> 10 µM,0.57
"Cn1cc(-c2cc3ncc(N4CCCN(c5ncc(Cc6ccccc6)cn5)CC4)n3cn2)cn1 [Compound 114, 3-(4-(5-benzylpyrimidin-2-yl)-1,4-diazepan-1-yl)-7-(1-methyl-1H-pyrazol-4-yl)imidazo[1,2-c]pyrimidine]",> 10 µM,0.33
"C[C@@H](OC(=O)N1CCN(c2cnc3cc(-c4cnn(C)c4)ncn23)CC1)c1ccccc1 [Compound 115, (R)-1-phenylethyl 4-(7-(1-methyl-1H-pyrazol-4-yl)imidazo[1,2-c]pyrimidin-3-yl)piperazine-1-carboxylate]",> 10 µM,2.46
"C[C@@H](OC(=O)N1CCN(c2cnc3nc(-c4cnn(C)c4)ccn23)CC1)c1ccccc1 [Compound 116, (R)-1-phenylethyl 4-(7-(1-methyl-1H-pyrazol-4-yl)imidazo[1,2-a]pyrimidin-3-yl)piperazine-1-carboxylate]",6.52 µM,4.31
"C[C@@H](OC(=O)N1CCCN(c2cnc3nc(-c4cnn(C)c4)ccn23)CC1)c1ccccc1 [Compound 117, (R)-1-phenylethyl 4-(7-(1-methyl-1H-pyrazol-4-yl)imidazo[1,2-a]pyrimidin-3-yl)-1,4-diazepane-1-carboxylate]",> 10 µM,1.39
"Cn1cc(-c2cc3ncc(N4CCN(C(=O)NCc5ccc(C(F)(F)F)cc5)CC4)n3cn2)cn1 [Compound 118, 4-(7-(1-methyl-1H-pyrazol-4-yl)imidazo[1,2-c]pyrimidin-3-yl)-N-(4-(trifluoromethyl)benzyl)piperazine-1-carboxamide]",> 10 µM,0.93
"Cn1cc(-c2ccn3c(N4CCN(C(=O)NCc5ccc(C(F)(F)F)cc5)CC4)cnc3n2)cn1 [Compound 119, 4-(7-(1-methyl-1H-pyrazol-4-yl)imidazo[1,2-a]pyrimidin-3-yl)-N-(4-(trifluoromethyl)benzyl)piperazine-1-carboxamide]",1.71 µM,8.04
"Cn1cc(-c2ccn3c(N4CCCN(C(=O)NCc5ccc(C(F)(F)F)cc5)CC4)cnc3n2)cn1 [Compound 120, 4-(7-(1-methyl-1H-pyrazol-4-yl)imidazo[1,2-a]pyrimidin-3-yl)-N-(4-(trifluoromethyl)benzyl)-1,4-diazepane-1-carboxamide]",> 10 µM,0.87
"Cn1cc(-c2ccn3c(N4CCN(c5ncc(Cc6ccccc6)cn5)CC4)cnc3n2)cn1 [Compound 121, 3-(4-(5-benzylpyrimidin-2-yl)piperazin-1-yl)-7-(1-methyl-1H-pyrazol-4-yl)imidazo[1,2-a]pyrimidine]",0.818 µM,4.71
"Cn1cc(-c2ccn3c(N4CCCN(c5ncc(Cc6ccccc6)cn5)CC4)cnc3n2)cn1 [Compound 122, 3-(4-(5-benzylpyrimidin-2-yl)-1,4-diazepan-1-yl)-7-(1-methyl-1H-pyrazol-4-yl)imidazo[1,2-a]pyrimidine]",> 10 µM,3.19

# Continued, values first:
IC50 (PDGFRα),GPR17 Fold Induction (Over Vehicle; 3 μM) [1],SMILES
> 10 µM,1.34,"Cn1cc(-c2ccc3c(NCCNc4ncc(Cc5ccccc5)cn4)cnn3c2)cn1 [Compound 123, N^1-(5-benzylpyrimidin-2-yl)-N^2-(6-(1-methyl-1H-pyrazol-4-yl)pyrazolo[1,5-a]pyridin-3-yl)ethane-1,2-diamine]"
> 10 µM,1.47,"Cn1cc(-c2ccc3c(NCCCNc4ncc(Cc5ccccc5)cn4)cnn3c2)cn1 [Compound 124, N^1-(5-benzylpyrimidin-2-yl)-N^3-(6-(1-methyl-1H-pyrazol-4-yl)pyrazolo[1,5-a]pyridin-3-yl)propane-1,3-diamine]"
> 10 µM,1.09,"CN(CCNc1ncc(Cc2ccccc2)cn1)c1cnn2cc(-c3cnn(C)c3)ccc12 [Compound 125, N^1-(5-benzylpyrimidin-2-yl)-N^2-methyl-N^2-(6-(1-methyl-1H-pyrazol-4-yl)pyrazolo[1,5-a]pyridin-3-yl)ethane-1,2-diamine]"
7.12 µM,5.91,"CN(CCNc1cnn2cc(-c3cnn(C)c3)ccc12)c1ncc(Cc2ccccc2)cn1 [Compound 126, N^1-(5-benzylpyrimidin-2-yl)-N^1-methyl-N^2-(6-(1-methyl-1H-pyrazol-4-yl)pyrazolo[1,5-a]pyridin-3-yl)ethane-1,2-diamine]"
> 10 µM,1.36,"CN(CCN(C)c1cnn2cc(-c3cnn(C)c3)ccc12)c1ncc(Cc2ccccc2)cn1 [Compound 127, N^1-(5-benzylpyrimidin-2-yl)-N^1,N^2-dimethyl-N^2-(6-(1-methyl-1H-pyrazol-4-yl)pyrazolo[1,5-a]pyridin-3-yl)ethane-1,2-diamine]"
> 10 µM,1.45,"CN(CCCNc1ncc(Cc2ccccc2)cn1)c1cnn2cc(-c3cnn(C)c3)ccc12 [Compound 128, N^1-(5-benzylpyrimidin-2-yl)-N^3-methyl-N^3-(6-(1-methyl-1H-pyrazol-4-yl)pyrazolo[1,5-a]pyridin-3-yl)propane-1,3-diamine]"
> 10 µM,2.27,"CN(CCCNc1cnn2cc(-c3cnn(C)c3)ccc12)c1ncc(Cc2ccccc2)cn1 [Compound 129, N^1-(5-benzylpyrimidin-2-yl)-N^1-methyl-N^3-(6-(1-methyl-1H-pyrazol-4-yl)pyrazolo[1,5-a]pyridin-3-yl)propane-1,3-diamine]"
0.744 µM,5.85,"Cn1cc(-c2ccc3c(C4=CCC(C(=O)OCc5ccccc5)CC4)cnn3c2)cn1 (stereo not shown) [Compound 132, benzyl 4-(6-(1-methyl-1H-pyrazol-4-yl)pyrazolo[1,5-a]pyridin-3-yl)cyclohex-3-ene-1-carboxylate]"
1.44 µM,3.02,"Cn1cc(-c2ccc3c(C4=CCC(C(=O)OCc5ccccc5)C4)cnn3c2)cn1 (stereo not shown) [Compound 133, benzyl 3-[6-(1-methylpyrazol-4-yl)pyrazolo[1,5-a]pyridin-3-yl]cyclopent-3-ene-1-carboxylate]"
3.63 µM,7.38,"CN(Cc1ccccc1)C(=O)C1CC=C(c2cnn3cc(-c4cnn(C)c4)ccc23)C1 (stereo not shown) [Compound 135, N-benzyl-N-methyl-3-(6-(1-methyl-1H-pyrazol-4-yl)pyrazolo[1,5-a]pyridin-3-yl)cyclopent-3-ene-1-carboxamide]"
> 10 µM,3.64,"Cn1cc(-c2ccc3c(C4CCC(C(=O)OCc5ccccc5)CC4)cnn3c2)cn1 (stereo not shown) [Compound 136, benzyl 4-(6-(1-methyl-1H-pyrazol-4-yl)pyrazolo[1,5-a]pyridin-3-yl)cyclohexane-1-carboxylate]"
5.05 µM,0.99,Cn1cc(-c2ccc3c(C4CCC(C(=O)OCc5ccccc5)C4)cnn3c2)cn1 (stereo not shown) [Compound 137]
9.01 µM,0.98,"Cn1cc(-c2ccc3c(C4CCC(COc5ccccc5)CC4)cnn3c2)cn1 (stereo not shown) [Compound 138, 6-(1-methyl-1H-pyrazol-4-yl)-3-(4-(phenoxymethyl)cyclohexyl)pyrazolo[1,5-a]pyridine]"
8.81 µM,3.87,"CN(Cc1ccccc1)C(=O)C1CCC(c2cnn3cc(-c4cnn(C)c4)ccc23)CC1 (stereo not shown) [Compound 139, N-benzyl-N-methyl-4-(6-(1-methyl-1H-pyrazol-4-yl)pyrazolo[1,5-a]pyridin-3-yl)cyclohexane-1-carboxamide]"
> 10 µM,3.54,"CN(Cc1ccccc1)C(=O)C1CCC(c2cnn3cc(-c4cnn(C)c4)ccc23)C1 (stereo not shown) [Compound 140, N-benzyl-N-methyl-3-(6-(1-methyl-1H-pyrazol-4-yl)pyrazolo[1,5-a]pyridin-3-yl)cyclopentane-1-carboxamide]"
